According to patent publication US10188693B2, “Methods for treatment of atherosclerosis” (Stealth BioTherapeutics Corp, priority 2012, dated 2019):
Several values for one entry are separate records, joined by “and”; a condition that tells them apart may be missing. Equal values may be shown once. Entries after “also recorded” stand apart in the source; their conditions may differ.

Columns and labels:
Type in all cases: in vivo
[1] = system: Apoprotein E deficient mice; assay: Total lesion area in aortic root 300 μm across aortic valve (aortic sinus cryosections, lipid staining); parameters: Area, total lesion area in aortic root / Area, total lesion area in aortic root, AVE: unit not given here; conditions: 12 weeks
Source text: (§1) Apoprotein E deficient mice (Jackson Laboratories, 600 Main Street, Bar Harbor, Me.) were used in this study. The mice were male, 7-8 weeks of age, and between 18-20 g in weight. An initial total cholesterol measurement was made on 30 mice, and the mice were grouped into two groups of 15 to match the total cholesterol measurements. Both groups were fed a “western diet” (40 kcal % butterfat, 0.15% [wt/wt] cholesterol, Harlan Teklad diet TD-88137). Starting at t=0, the control group of 15 mice received vehicle only (phosphate buffered saline at pH 7.4), while the test group of 15 mice received aromatic-cationic peptide reconstituted in phosphate buffered saline. Body weights of the mice were recorded weekly, and mortality checks were performed daily.
The aromatic-cationic peptide D-Arg-2′6′-Dmt-Lys-Phe-NH2 (sterile lyophilized powder, reconstituted in phosphate buffered saline) was tested. […]
For the aortic sinus, the heart and approximately 5 mm of the ascending aorta was cut from the remainder of the aorta. […] The sinus was imaged at 5 step levels in the region of interest, i.e., the aortic root, for a total distance of 300 μm and the lipid-staining areas and measured (total cross sectional area) using a Nikon computerized image analysis system. The data were then computed by group and statistically analyzed.

[2] = system: Apoprotein E deficient mice; assay: Plasma lipoprotein cholesterol by gel electrophoresis (Spife; HDL-C, LDL-C, VLDL-C); conditions: for HDL-C / LDL-C / VLDL-C: plasma, Spife (electrophoresis)
Source text: as §1
(§2) The aromatic-cationic peptide D-Arg-2′6′-Dmt-Lys-Phe-NH2 (sterile lyophilized powder, reconstituted in phosphate buffered saline) was tested. For the 12-week study, test mice received a single, daily dose of the peptide, subcutaneously at 1 mg/kg. Control mice received a single daily dose of vehicle.
(§3) Experimental Protocol/Data Collection. Blood was collected every four weeks (orbital plexis) under isoflurane anesthesia (3%) and blood lipids were determined. Plasma lipid analysis was conducted for both groups at t=0, 4, […], 8, and 12 weeks. Plasma lipid analysis using an autoanalyzer included total cholesterol (TC), triglycerides (Trigs), phospholipids (PL), free cholesterol (FC), and cholesterol ester (CE, by calculation). Gel electrophoresis was used to measure levels of high-density lipoprotein cholesterol (HDL-C), low-density lipoprotein cholesterol (LDL-C), and very low-density lipoprotein cholesterol (VLDL-C).

[3] = system: Apoprotein E deficient mice; assay: Thoracic aorta lipids (Bligh-Dyer extraction, WAKO kits; TC, FC, CE per mg protein); conditions: 12 weeks
Source text: as §1, §2
Histopathology/Histomorphometery: Following the 12 week treatment, mice were euthanized within 48 hours after the last dose by CO2 asphyxiation and the vascular tree was perfused with 5 mL of phosphate buffered saline (pH 7.4). The aorta and aortic sinus were removed for examination. Thoracic aorta were isolated, trimmed of fat, and fixed in formalin for 48-72 hours before analysis. For en face analysis, aortas were laid out and pinned on black matrix for photography, and stained with Sudan IV. Vessels were imaged for surface involvement using a Nikon computerized image analysis system and the percent of the aortic surface area covered by lipid was calculated. Two determinations were done for each image (Quan 1 and Quan 2), and the average was computed. The data were then computed by group and statistically analyzed. Following staining and morphometric analysis, total lipids were extracted from the aortas using the Bligh-Dyer method. WAKO Diagnostics kits (WAKO Diagnostics, Inc., 1600 Bellwood Road Richmond, Va. 23237-1326) were then used to evaluate total cholesterol, free cholesterol, and cholesterol ester. Cholesterol leves were quantitate nad expressed relative to protein levels. Values are expressed as μg lipid per mg protein (see e.g., FIG. 1).

[4] = system: Apoprotein E deficient mice; assay: Plasma lipid analysis using an autoanalyzer (TC, Trigs, PL, FC, CE by calculation); parameters: TC, plasma / FC, plasma / CE, plasma / Trigs, plasma / PL, plasma / TC / FC / CE / Trigs / PL: unit not given here; conditions: Week 0 (t=0, start of dosing), individual mouse of test group
Source text: as §1, §2, §3

[5] = treated versus vehicle, listed as aromatic-cationic peptide
[6] = Week 0 (t=0, start of dosing), individual mouse of test group
[7] = Week 0, group average of test group
[8] = at 4, 8 and 12 week time points, versus vehicle
[9] = week 4, individual test mouse (sample #16-30), listed as aromatic-cationic peptide
[10] = week 8, individual test mouse (sample #16-30), listed as aromatic-cationic peptide
[11] = week 12, AVE of 15 test animals
[12] = week 12, individual test mouse (sample #16-30), listed as aromatic-cationic peptide
[13] = group average, 1 mg/kg subcutaneously daily
[14] = individual mouse, 1 mg/kg subcutaneously daily, μg lipid per mg protein, listed as Peptide, 1 mg/kg

## D-Arg-2′6′-Dmt-Lys-Phe-NH2
[1]; group average, 300 μm across aortic valve, 1 mg/kg subcutaneously daily
  Area, total lesion area in aortic root, AVE: 282.72
[1]; [5]
  total (mean) lesion area in aortic root, in words: reduces; also recorded: lower
[2]; [6]
  HDL-C, plasma: 19 mg/dL and 34 mg/dL and 32 mg/dL and 37 mg/dL and 35 mg/dL and 21 mg/dL and 38 mg/dL and 41 mg/dL and 6 mg/dL and 31 mg/dL and 26 mg/dL and 39 mg/dL and 22 mg/dL and 29 mg/dL and 8 mg/dL
  LDL-C, plasma: 258 mg/dL and 260 mg/dL and 307 mg/dL and 245 mg/dL and 268 mg/dL and 295 mg/dL and 304 mg/dL and 474 mg/dL and 287 mg/dL and 352 mg/dL and 380 mg/dL and 481 mg/dL and 410 mg/dL and 432 mg/dL and 773 mg/dL
  VLDL-C, plasma: 25 mg/dL (2×) and 23 mg/dL and 37 mg/dL and 20 mg/dL (2×) and 19 mg/dL and 27 mg/dL and 36 mg/dL and 15 mg/dL and 26 mg/dL and 31 mg/dL and 24 mg/dL and 28 mg/dL and 29 mg/dL
[2]; [7]
  HDL-C, plasma, AVE: 28 mg/dL
  LDL-C, plasma, AVE: 368 mg/dL
  VLDL-C, plasma, AVE: 26 mg/dL
[2]; [8]
  plasma LDL-C, in words: reduces
  plasma VLDL-C, in words: reduces
[2]; week 4, AVE of 15 test animals
  HDL-C: 25 mg/dL
  LDL-C: 940 mg/dL
  VLDL-C: 33 mg/dL
[2]; [9]
  HDL-C: 18 mg/dL and 20 mg/dL (3×) and 0 mg/dL and 13 mg/dL and 7 mg/dL and 23 mg/dL and 32 mg/dL (3×) and 15 mg/dL and 45 mg/dL and 44 mg/dL and 49 mg/dL
  LDL-C: 745 mg/dL and 866 mg/dL and 918 mg/dL and 1120 mg/dL and 982 mg/dL and 648 mg/dL and 893 mg/dL and 975 mg/dL and 770 mg/dL and 766 mg/dL and 966 mg/dL and 1147 mg/dL and 874 mg/dL and 1171 mg/dL and 1254 mg/dL
  VLDL-C: 35 mg/dL (2×) and 37 mg/dL (2×) and 19 mg/dL and 44 mg/dL (2×) and 18 mg/dL and 23 mg/dL and 39 mg/dL and 41 mg/dL and 28 mg/dL and 31 mg/dL and 30 mg/dL and 32 mg/dL
[2]; week 8, AVE of 15 test animals
  HDL-C: 32 mg/dL
  LDL-C: 1166 mg/dL
  VLDL-C: 84 mg/dL
[2]; [10]
  HDL-C: 42 mg/dL and 34 mg/dL and 27 mg/dL and 33 mg/dL and 19 mg/dL (2×) and 8 mg/dL and 45 mg/dL and 16 mg/dL and 32 mg/dL and 41 mg/dL (2×) and 25 mg/dL and 43 mg/dL and 57 mg/dL
  LDL-C: 1119 mg/dL and 897 mg/dL and 1392 mg/dL and 1071 mg/dL and 1415 mg/dL and 901 mg/dL and 875 mg/dL and 1378 mg/dL and 922 mg/dL and 856 mg/dL and 1317 mg/dL and 1320 mg/dL and 1025 mg/dL and 1382 mg/dL and 1621 mg/dL
  VLDL-C: 101 mg/dL and 73 mg/dL and 86 mg/dL and 79 mg/dL (2×) and 112 mg/dL and 34 mg/dL and 88 mg/dL and 69 mg/dL and 59 mg/dL and 93 mg/dL and 74 mg/dL and 80 mg/dL and 109 mg/dL and 119 mg/dL
[2]; [11]
  HDL-C: 21 mg/dL
  LDL-C: 939 mg/dL
  VLDL-C: 44 mg/dL
[2]; [12]
  HDL-C: 38 mg/dL and 20 mg/dL (2×) and 10 mg/dL and 41 mg/dL and 21 mg/dL and 5 mg/dL and 31 mg/dL (2×) and 2 mg/dL (2×) and 40 mg/dL and 28 mg/dL and 1 mg/dL and 23 mg/dL
  LDL-C: 821 mg/dL and 485 mg/dL and 854 mg/dL and 852 mg/dL and 1328 mg/dL and 693 mg/dL and 611 mg/dL and 692 mg/dL and 962 mg/dL and 896 mg/dL and 1275 mg/dL and 1218 mg/dL and 505 mg/dL and 1203 mg/dL and 1688 mg/dL
  VLDL-C: 39 mg/dL and 35 mg/dL and 21 mg/dL (2×) and 43 mg/dL and 71 mg/dL and 32 mg/dL and 33 mg/dL and 26 mg/dL and 63 mg/dL and 76 mg/dL and 36 mg/dL and 30 mg/dL and 83 mg/dL and 46 mg/dL
[3]; [13]
  CE (cholesterol ester), thoracic aorta, AVE: 14.6 µg/mg
  FC (free cholesterol), thoracic aorta, AVE: 5.7 µg/mg
  TC (total cholesterol), thoracic aorta, AVE: 20.4 µg/mg
[3]; [14]
  CE (cholesterol ester), thoracic aorta: 13.8 μg/mg and 2.7 μg/mg and 30.3 μg/mg and 14.7 μg/mg and 30.7 μg/mg and 14.1 μg/mg and 4.6 μg/mg (2×) and 5.6 μg/mg (2×) and 28.5 μg/mg and 21.3 μg/mg and 18.6 μg/mg and 11.4 μg/mg and 13.0 μg/mg
  FC (free cholesterol), thoracic aorta: 7.6 μg/mg (2×) and 4.0 μg/mg and 5.1 μg/mg and 3.0 μg/mg (2×) and 8.1 μg/mg and 2.7 μg/mg and 3.5 μg/mg and 14.6 μg/mg and 6.6 μg/mg and 3.8 μg/mg and 3.6 μg/mg and 3.3 μg/mg and 9.5 μg/mg
  TC (total cholesterol), thoracic aorta: 21.4 µg/mg and 6.7 µg/mg and 35.4 µg/mg and 17.7 µg/mg and 38.8 µg/mg and 16.8 µg/mg and 8.1 µg/mg and 20.1 µg/mg and 35.1 µg/mg and 9.4 µg/mg and 24.9 µg/mg and 21.7 µg/mg and 7.9 µg/mg and 19.0 µg/mg and 22.5 µg/mg
[3]; [5]
  cholesterol esters in the thoracic aorta, in words: lower
  free cholesterol in the thoracic aorta, in words: lower
  total cholesterol in the thoracic aorta, in words: lower
[4]
  FC, plasma: 119 and 121 and 134 (2×) and 110 and 116 and 131 and 129 and 184 and 113 and 139 and 170 and 151 and 159 and 220
  PL, plasma: 267 (3×) and 308 and 255 and 306 and 298 and 369 and 238 and 320 and 313 and 332 and 343 and 338 and 413
  TC, plasma: 302 (2×) and 318 and 376 and 323 and 335 and 369 and 550 and 309 and 409 and 431 and 552 and 457 and 490 and 808
  Trigs, plasma: 75 and 88 (3×) and 117 and 96 and 71 and 138 and 167 and 136 and 151 and 191 and 188 and 154 and 353
